# Test results taken from the NIST ThermoML archive (doi:10.1016/j.fluid.2017.09.010).
# Numbers after ± are expanded uncertainties.
# Conditions: Liquid, Ebulliometric method (Recirculating still)
smiles,measurement,setting,value
O [water],vapor or sublimation pressure,373 K,101 ± 5 kPa
CCCOC(C)=O [propyl ethanoate],vapor or sublimation pressure,374.2 K,101 ± 1 kPa
CC(=O)OC(C)C [1-methylethyl ethanoate],vapor or sublimation pressure,361.8 K,101 ± 1 kPa
CC(C)O [propan-2-ol],vapor or sublimation pressure,355.4 K,101 ± 1 kPa
